Converted amounts (≈) assume the structure as drawn.
Legend:
[1] = system: Staphylococcus epidermidis; assay: Minimum inhibitory concentration against methicillin-sensitive Staphylococcus epidermidis in the presence of 30% bovine serum; assay type: functional
[2] = system: Staphylococcus epidermidis; assay: Minimum inhibitory concentration against methicillin-resistant Staphylococcus epidermidis in the presence of 30% bovine serum; assay type: functional
Staphylococcus aureus [3] = assay: Minimum inhibitory concentration against methicillin-sensitive Staphylococcus aureus
Enterococcus faecium [4] = assay: Minimum inhibitory concentration against vancomycin-A Enterococcus faecium in the presence of 30% bovine serum (n=1) (range = 4>128mg/L); assay type: functional
Enterococcus faecalis [5] = assay: Minimum inhibitory concentration against vancomycin-A Enterococcus faecalis in the presence of 30% bovine serum (n=4) (range = 1-16mg/L); assay type: functional
Staphylococcus aureus [6] = assay: Minimum inhibitory concentration against methicillin-resistant Staphylococcus aureus
Enterococcus faecalis [7] = assay: Minimum inhibitory concentration against vancomycin-sensitive Enterococcus faecalis in the presence of 30% bovine serum (n=3) (range = 0.25-0.5mg/l); assay type: functional
[8] = system: Staphylococcus haemolyticus; assay: Minimum inhibitory concentration against Staphylococcus haemolyticus in the presence of 30% bovine serum; assay type: functional
Enterococcus faecium [9] = assay: Minimum inhibitory concentration against vancomycin-sensitive Enterococcus faecium in the presence of 30% bovine serum(n=1); assay type: functional
Enterococcus faecium [10] = assay: Minimum inhibitory concentration against vancomycin-A Enterococcus faecium in the presence of 30% bovine serum (n=1) (range = 64>128mg/L); assay type: functional
Enterococcus faecalis [11] = assay: Minimum inhibitory concentration against vancomycin-sensitive Enterococcus faecalis in the presence of 30% bovine serum(n=3)(range = 1-2mg/l); assay type: functional
Enterococcus faecalis [12] = assay: Minimum inhibitory concentration against vancomycin-A Enterococcus faecalis in the presence of 30% bovine serum(n=4) (128 >128mg/L); assay type: functional
Enterococcus faecium [13] = assay: Minimum inhibitory concentration against vancomycin-A Enterococcus faecium in the presence of 30% bovine serum (n=1) (range = 0.25-32mg/l); assay type: functional
Enterococcus faecalis [14] = assay: Minimum inhibitory concentration against vancomycin-A Enterococcus faecalis in the presence of 30% bovine serum(n=4) (range = 0.5-64mg/L); assay type: functional
Enterococcus faecalis [15] = assay: Minimum inhibitory concentration against vancomycin-sensitive Enterococcus faecalis in the presence of 30% bovine serum (n=3) (range = <0.125-0.25mg/l); assay type: functional
Enterococcus faecium [16] = assay: Minimum inhibitory concentration against vancomycin-A Enterococcus faecium in the presence of 30% bovine serum (n=1) (range = 32>128mg/L); assay type: functional
Enterococcus faecalis [17] = assay: Minimum inhibitory concentration against vancomycin-A Enterococcus faecalis in the presence of 30% bovine serum (n=4) (range = 8-64mg/L); assay type: functional
Enterococcus faecalis [18] = assay: Minimum inhibitory concentration against vancomycin-sensitive Enterococcus faecalis in the presence of 30% bovine serum(n=3)(range = 0.125-0.25mg/l); assay type: functional
Enterococcus faecalis [19] = assay: Minimum inhibitory concentration against vancomycin-A Enterococcus faecalis in the presence of 30% bovine serum(n=4) (range = 0.125-16mg/L); assay type: functional
Enterococcus faecalis [20] = assay: Minimum inhibitory concentration against vancomycin-sensitive Enterococcus faecalis in the presence of 30% bovine serum(n=3)(range = 8-4); assay type: functional
Enterococcus faecium [21] = assay: Minimum inhibitory concentration against vancomycin-A Enterococcus faecium in the presence of 30% bovine serum (n=1); assay type: functional

SMILES	MIC [1] [µg/mL]	MIC [2] [µg/mL]	MIC (Staphylococcus aureus [3]) [µg/mL]	MIC (Staphylococcus aureus [6]) [µg/mL]	MIC [8] [µg/mL]	MIC (Enterococcus faecium [9]) [µg/mL]	other results
CN(Cc1ccc(-c2ccccc2)cc1)[C@H]1C(=O)N[C@@H]2Cc3ccc(cc3)Oc3cc4cc(c3O[C@@H]3OC(C(=O)O)C(O)[C@H](O)C3NCc3ccc(-c5ccccc5)cc3)Oc3ccc(cc3Cl)[C@@H](O)C3NC(=O)[C@H](NC(=O)[C@@H]4NC(=O)[C@@H](NC2=O)c2cc(cc(O)c2Cl)Oc2cc1ccc2O)c1ccc(O)c(c1)-c1c(O[C@H]2O[C@H](CO)[C@@H](O)[C@H](O)[C@@H]2O)cc(O)cc1[C@@H](C(=O)O)NC3=O (some centres not stated)	0.5	4	0.5 (≈ 0.266 µM)	0.5 (≈ 0.266 µM)	64	0.5	MIC (Enterococcus faecium [4]): > 128 µg/mL; MIC (Enterococcus faecalis [5]): 16 µg/mL; MIC (Enterococcus faecalis [7]): 0.5 µg/mL
CCCCOc1ccc(CN(C)[C@H]2C(=O)N[C@@H]3Cc4ccc(cc4)Oc4cc5cc(c4O[C@@H]4OC(C(=O)O)C(O)[C@H](O)C4N)Oc4ccc(cc4Cl)[C@@H](O)C4NC(=O)[C@H](NC(=O)[C@@H]5NC(=O)[C@@H](NC3=O)c3cc(cc(O)c3Cl)Oc3cc2ccc3O)c2ccc(O)c(c2)-c2c(O[C@H]3O[C@H](CO)[C@@H](O)[C@H](O)[C@@H]3O)cc(O)cc2[C@@H](C(=O)O)NC4=O)cc1 (some centres not stated)	32	128	4 (≈ 2.34 µM)	2 (≈ 1.17 µM)	> 128	2	MIC (Enterococcus faecium [10]): > 128 µg/mL; MIC (Enterococcus faecalis [11]): 2 µg/mL; MIC (Enterococcus faecalis [12]): 128 µg/mL
CN(C)CCCNC(=O)C1O[C@@H](Oc2c3cc4cc2Oc2ccc(cc2Cl)[C@@H](O)C2NC(=O)[C@H](NC(=O)[C@@H]4NC(=O)[C@H]4NC(=O)[C@@H](Cc5ccc(cc5)O3)NC(=O)[C@H](N(C)Cc3ccc5ccccc5c3)c3ccc(O)c(c3)Oc3cc(O)c(Cl)c4c3)c3ccc(O)c(c3)-c3c(O[C@H]4O[C@H](CO)[C@@H](O)[C@H](O)[C@@H]4O)cc(O)cc3[C@@H](C(=O)NCCCN(C)C)NC2=O)C(NCc2ccc3ccccc3c2)[C@@H](O)C1O (some centres not stated)	< 0.125	2	1 (≈ 0.5 µM)	2 (≈ 1 µM)	1	0.25	MIC (Enterococcus faecium [13]): > 32 µg/mL; MIC (Enterococcus faecalis [14]): 64 µg/mL; MIC (Enterococcus faecalis [15]): < 0.25 µg/mL
CCCCCCCCOc1ccc(CNC2[C@H](Oc3c4cc5cc3Oc3ccc(cc3Cl)[C@@H](O)C3NC(=O)[C@H](NC(=O)[C@@H]5NC(=O)[C@H]5NC(=O)[C@@H](Cc6ccc(cc6)O4)NC(=O)[C@H](NC)c4ccc(O)c(c4)Oc4cc(O)c(Cl)c5c4)c4ccc(O)c(c4)-c4c(O[C@H]5O[C@H](CO)[C@@H](O)[C@H](O)[C@@H]5O)cc(O)cc4[C@@H](C(=O)O)NC3=O)OC(C(=O)O)C(O)[C@@H]2O)cc1 (some centres not stated)	16		2 (≈ 1.13 µM)	1 (≈ 0.565 µM)	16	0.5	MIC (Enterococcus faecium [16]): > 128 µg/mL; MIC (Enterococcus faecalis [17]): 64 µg/mL; MIC (Enterococcus faecalis [18]): 0.125 µg/mL
CCCCC(CC)Oc1ccc(CNC2[C@H](Oc3c4cc5cc3Oc3ccc(cc3Cl)[C@@H](O)C3NC(=O)[C@H](NC(=O)[C@@H]5NC(=O)[C@H]5NC(=O)[C@@H](Cc6ccc(cc6)O4)NC(=O)[C@H](NC)c4ccc(O)c(c4)Oc4cc(O)c(Cl)c5c4)c4ccc(O)c(c4)-c4c(O[C@H]5O[C@H](CO)[C@@H](O)[C@H](O)[C@@H]5O)cc(O)cc4[C@@H](C(=O)NCCCN(C)C)NC3=O)OC(C(=O)NCCCN(C)C)C(O)[C@@H]2O)cc1 (some centres not stated)	< 0.125		< 0.125		4	< 0.125	MIC (Enterococcus faecalis [19]): < 16 µg/mL; MIC (Enterococcus faecalis [20]): < 0.125 µg/mL; MIC (Enterococcus faecium [21]): 16 µg/mL

Reference: ChEMBL document CHEMBL1142788, “Synthesis and antibacterial activity of alkyl derivatives of the glycopeptide antibiotic A40926 and their amides” (2005)
